From patent US20200399222A1, “PICOLINAMIDES AS FUNGICIDES” (Dow AgroSciences LLC, priority 2018, published 2020) come the findings set out here.

Read-outs that look alike come from different tables or passages of the source.

Holding throughout (format): in vivo
One experiment concerns Puccinia triticina. Briefly: Wheat brown rust (PUCCRT) disease control on wheat seedlings. Conditions: for pest or weed control at 121.5 g/ha: Low volume application; for pest or weed control at 100 ppm: High volume application. The procedure, abridged:
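Yuma wheat seedlings (first leaf emerged) sprayed to run-off with compound in acetone plus nine volumes water containing 110 ppm Triton X-100, or track-sprayed as EC formulations with 0.1% Trycol 5941. Rust spores inoculated before or after treatment; overnight dark dew, 22 °C, 100% RH, then greenhouse at 24 °C.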

For another experiment, the system named is Zymoseptoria tritici. Briefly: Leaf blotch of wheat (SEPTTR) disease control on wheat seedlings. Conditions: for pest or weed control at 121.5 g/ha: Low volume application; for pest or weed control at 100 ppm: High volume application.
The test system of a further experiment is Phakopsora pachyrhizi. Put plainly: Asian soybean rust (PHAKPA) disease control on soybean seedlings. Conditions: Phakopsora pachyrhizi, High volume application at 25 ppm. The procedure, abridged: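 Compounds in acetone diluted with nine volumes of water containing 0.011% Tween 20, sprayed to run-off on two-week-old Williams 82 soybean seedlings; inoculation 3 days before or 1 day after treatment. Plants held 24 h in dark dew room at 22° C, 100% RH, then at 23° C; disease severity scored on sprayed leaves.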

The mark [1] stands for this setting: 24 h, 1 Day Protectant, read-out: PUCCRT disease control rating, 1DP.
Where [2] appears, read: 72 h, 3 Day Curative, read-out: PUCCRT disease control rating, 3DC.
[3] abbreviates: 24 h, 1 Day Protectant, read-out: SEPTTR disease control rating, 1DP.
[4] abbreviates: 72 h, 3 Day Curative, read-out: SEPTTR disease control rating, 3DC.
Where [5] appears, read: 24 h, 1 day protectant, read-out: PHAKPA 1DP (1 Day Protectant) disease control.
Setting [6] is: 72 h, 3 day curative, read-out: PHAKPA 3DC (3 Day Curative) disease control.

In the case of `COc1ccnc(C(=O)N[C@@H](C)C(=O)O[C@H](C)[C@H](C)C2CCCC2)c1OC(=O)C(C)C` [Example 241], the pest or weed control at 121.5 g/ha in the experiment on Puccinia triticina (setting [1]) is less than 0%; in the experiment with Puccinia triticina (setting [2]), less than 0%; in the experiment on Zymoseptoria tritici (setting [3]) it was less than 80%; in the experiment with Zymoseptoria tritici (setting [4]) it was less than 0%. The pest or weed control at 25 ppm in the experiment on Phakopsora pachyrhizi (setting [5]) and with Phakopsora pachyrhizi (setting [6]) was less than 0% each time.

For `COc1ccnc(C(=O)N[C@@H](C)C(=O)O[C@H](C)[C@H](C)c2ccc(F)cc2C(F)(F)F)c1OC(C)=O` [Example 251], the pest or weed control at 121.5 g/ha in the experiment on Puccinia triticina (setting [1]), in the experiment with Puccinia triticina (setting [2]), with Zymoseptoria tritici (setting [3]) and in the experiment on Zymoseptoria tritici (setting [4]) was less than 80% each time. The pest or weed control at 25 ppm in the experiment on Phakopsora pachyrhizi (setting [5]) is greater than 80%; with Phakopsora pachyrhizi (setting [6]), less than 80%.

Turning to `COc1cc(F)ccc1[C@@H](C)[C@@H](C)OC(=O)[C@H](C)n1c(=O)oc2c(OC)ccnc2c1=O` [Example 262], the pest or weed control at 121.5 g/ha was less than 0% in the experiment with Puccinia triticina (setting [1]), less than 0% in the experiment with Puccinia triticina (setting [2]), less than 80% with Zymoseptoria tritici (setting [3]) and less than 80% in the experiment on Zymoseptoria tritici (setting [4]). The pest or weed control at 25 ppm in the experiment with Phakopsora pachyrhizi (setting [5]) and with Phakopsora pachyrhizi (setting [6]) was less than 80% throughout.

`COc1ccnc(C(=O)N[C@@H](C)C(=O)O[C@@H](C)[C@@H](C)C2CCCC2)c1OC(=O)C(C)C` [Example 236]: the pest or weed control at 121.5 g/ha with Puccinia triticina (setting [1]) was less than 80%; in the experiment with Puccinia triticina (setting [2]) it was less than 80%; in the experiment on Zymoseptoria tritici (setting [3]), less than 80%; with Zymoseptoria tritici (setting [4]), less than 0%. For the same compound, the pest or weed control at 25 ppm in the experiment on Phakopsora pachyrhizi (setting [5]) was greater than 80%; with Phakopsora pachyrhizi (setting [6]) it was less than 0%.

As to `COc1ccnc(C(=O)N[C@@H](C)C(=O)O[C@H](C)[C@H](C)c2ccc(F)cc2)c1OCOC(C)=O` [Example 232], the pest or weed control at 121.5 g/ha in the experiment with Puccinia triticina (setting [1]) was greater than 80%; with Puccinia triticina (setting [2]), less than 80%; in the experiment with Zymoseptoria tritici (setting [3]) it was less than 0%; in the experiment on Zymoseptoria tritici (setting [4]), less than 80%. Also, the pest or weed control at 25 ppm is less than 80% in the experiment with Phakopsora pachyrhizi (setting [5]) and less than 0% with Phakopsora pachyrhizi (setting [6]).

In the case of `COc1cc[n+]([O-])c(C(=O)N[C@@H](C)C(=O)O[C@@H](C)[C@@H](C)c2ccccc2)c1O` [Example 276], the pest or weed control at 100 ppm is greater than 80% in the experiment on Puccinia triticina (setting [1]), less than 80% in the experiment with Puccinia triticina (setting [2]), less than 80% with Zymoseptoria tritici (setting [3]) and less than 80% with Zymoseptoria tritici (setting [4]). Besides, the pest or weed control at 121.5 g/ha in the experiment on Puccinia triticina (setting [1]), with Puccinia triticina (setting [2]), in the experiment on Zymoseptoria tritici (setting [3]) and in the experiment with Zymoseptoria tritici (setting [4]) was less than 80% in each case. For the same compound, the pest or weed control at 25 ppm with Phakopsora pachyrhizi (setting [5]) is less than 0%; in the experiment with Phakopsora pachyrhizi (setting [6]), less than 80%.

For `COc1ccnc(C(=O)N[C@@H](C)C(=O)O[C@@H](C)[C@@H](C)c2ccc(F)cc2C)c1O` [Example 128], the pest or weed control at 100 ppm in the experiment with Puccinia triticina (setting [1]), in the experiment with Puccinia triticina (setting [2]), in the experiment on Zymoseptoria tritici (setting [3]) and in the experiment with Zymoseptoria tritici (setting [4]) was greater than 80% each time. The pest or weed control at 25 ppm in the experiment on Phakopsora pachyrhizi (setting [6]) is greater than 80%.

As for `COc1cc[n+]([O-])c(C(=O)N[C@@H](C)C(=O)O[C@@H](C)[C@@H](C)c2ccccc2C(F)(F)F)c1O` [Example 273], the pest or weed control at 121.5 g/ha in the experiment on Puccinia triticina (setting [1]), in the experiment with Puccinia triticina (setting [2]), with Zymoseptoria tritici (setting [3]) and in the experiment on Zymoseptoria tritici (setting [4]) was less than 80% each time. In addition, the pest or weed control at 25 ppm in the experiment with Phakopsora pachyrhizi (setting [5]) and with Phakopsora pachyrhizi (setting [6]) was less than 80% each time.

Regarding `COc1ccnc(C(=O)N[C@@H](C)C(=O)O[C@@H](C)[C@@H](C)C2CCCC2)c1OC(C)=O` [Example 247], the pest or weed control at 121.5 g/ha in the experiment on Puccinia triticina (setting [1]), in the experiment on Puccinia triticina (setting [2]), in the experiment on Zymoseptoria tritici (setting [3]) and in the experiment on Zymoseptoria tritici (setting [4]) was less than 80% throughout. In addition, the figures for the pest or weed control at 25 ppm with Phakopsora pachyrhizi (setting [5]) and in the experiment with Phakopsora pachyrhizi (setting [6]) were greater than 80% and less than 80%, respectively.

In the case of `COc1ccnc2c(=O)n([C@@H](C)C(=O)O[C@@H](C)[C@@H](C)c3ccccc3)c(=O)oc12` [Example 261], the pest or weed control at 121.5 g/ha was less than 80% with Puccinia triticina (setting [1]), less than 0% in the experiment with Puccinia triticina (setting [2]), less than 80% in the experiment with Zymoseptoria tritici (setting [3]) and less than 0% in the experiment on Zymoseptoria tritici (setting [4]). Also, the pest or weed control at 25 ppm in the experiment on Phakopsora pachyrhizi (setting [5]) and in the experiment on Phakopsora pachyrhizi (setting [6]) was less than 80% each time.

For the compound `COc1ccnc(C(=O)N[C@@H](C)C(=O)O[C@@H](C)[C@@H](C)c2c(C)cccc2C)c1OC(C)=O` [Example 248], the pest or weed control at 121.5 g/ha is greater than 80% in the experiment on Puccinia triticina (setting [1]), less than 80% with Puccinia triticina (setting [2]), less than 80% in the experiment with Zymoseptoria tritici (setting [3]) and greater than 80% with Zymoseptoria tritici (setting [4]). Besides, the pest or weed control at 25 ppm with Phakopsora pachyrhizi (setting [5]) and in the experiment on Phakopsora pachyrhizi (setting [6]) was greater than 80% in each case.

On to `COc1ccnc(C(=O)N[C@@H](C)C(=O)O[C@@H](C)[C@@H](C)c2ccccc2C(F)(F)F)c1OC(C)=O` [Example 245], for which the pest or weed control at 121.5 g/ha with Puccinia triticina (setting [1]) is greater than 80%; in the experiment on Puccinia triticina (setting [2]), less than 80%; in the experiment on Zymoseptoria tritici (setting [3]), greater than 80%; in the experiment with Zymoseptoria tritici (setting [4]), greater than 80%. The pest or weed control at 25 ppm with Phakopsora pachyrhizi (setting [5]) and with Phakopsora pachyrhizi (setting [6]) was greater than 80% each time.

On to `COc1ccnc(C(=O)N[C@@H](C)C(=O)O[C@@H](C)[C@@H](C)c2ccc(C)cc2C)c1OC(C)=O` [Example 177], for which the pest or weed control at 121.5 g/ha in the experiment with Puccinia triticina (setting [1]), with Puccinia triticina (setting [2]), in the experiment on Zymoseptoria tritici (setting [3]) and in the experiment on Zymoseptoria tritici (setting [4]) was greater than 80% each time. Also, the pest or weed control at 25 ppm with Phakopsora pachyrhizi (setting [5]) and with Phakopsora pachyrhizi (setting [6]) was greater than 80% each time.

For `COc1cc(F)ccc1[C@@H](C)[C@@H](C)OC(=O)[C@H](C)NC(=O)c1nccc(OC)c1OC(C)=O` [Example 260], the pest or weed control at 100 ppm with Puccinia triticina (setting [1]) was greater than 80%; with Puccinia triticina (setting [2]), less than 80%; in the experiment with Zymoseptoria tritici (setting [3]), less than 80%; with Zymoseptoria tritici (setting [4]), less than 80%. Further, the pest or weed control at 121.5 g/ha in the experiment with Puccinia triticina (setting [1]) is less than 0%; in the experiment on Puccinia triticina (setting [2]) it was less than 0%; in the experiment with Zymoseptoria tritici (setting [3]), less than 80%; in the experiment on Zymoseptoria tritici (setting [4]) it was less than 0%. The pest or weed control at 25 ppm in the experiment with Phakopsora pachyrhizi (setting [5]) was greater than 80%; with Phakopsora pachyrhizi (setting [6]), less than 80%.

`COc1ccnc(C(=O)N[C@@H](C)C(=O)O[C@@H](C)[C@@H](C)c2ccccc2C)c1OC(=O)C(C)C` [Example 266]: the pest or weed control at 121.5 g/ha with Puccinia triticina (setting [1]), with Puccinia triticina (setting [2]), in the experiment on Zymoseptoria tritici (setting [3]) and with Zymoseptoria tritici (setting [4]) was less than 80% throughout. Besides, the pest or weed control at 25 ppm in the experiment with Phakopsora pachyrhizi (setting [5]) and in the experiment on Phakopsora pachyrhizi (setting [6]) was greater than 80% each time.

In the case of `COc1ccccc1[C@H](C)[C@H](C)OC(=O)[C@H](C)NC(=O)c1nccc(OC)c1OC(C)=O` [Example 257], the pest or weed control at 121.5 g/ha in the experiment with Puccinia triticina (setting [1]), in the experiment with Puccinia triticina (setting [2]), in the experiment on Zymoseptoria tritici (setting [3]) and with Zymoseptoria tritici (setting [4]) was less than 80% each time. Further, the pest or weed control at 25 ppm with Phakopsora pachyrhizi (setting [5]) is less than 80%; with Phakopsora pachyrhizi (setting [6]) it was less than 0%.
